How the values were obtained:
[1] = Highest frequency of moderate liver toxicity observed during clinical trials, expressed as a percentage. [column '% BIOL' in source]; settings: human
[2] = Highest frequency of acute liver toxicity observed during clinical trials, expressed as a percentage. [column '% AIGUE' in source]; settings: human
[3] = Times to onset, minimal and maximal, observed in the indexed observations. [column 'DELAI' in source]; settings: human
[4] = human, serum
[5] = human, serum; remark: listed apart in the source
[6] = human
[7] = human; remark: listed apart in the source
[8] = human; remark: listed apart in the source
[9] = human, serum, 4383 h
[10] = human; remark: listed apart in the source
[11] = human; remark: listed apart in the source
[12] = human; remark: listed apart in the source
[13] = human; remark: listed apart in the source
[14] = human; remark: listed apart in the source
[15] = human; remark: listed apart in the source
[16] = human; remark: listed apart in the source
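Throughout, for Hepatotoxicity (association with vascular disease): count of indexed literature references reporting vascular liver injury in humans, e.g. peliosis hepatitis, hepatic veno-occlusive disease or Budd-Chiari syndrome.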
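Throughout, for Hepatotoxicity (benign tumour): value is a count of indexed literature references citing a benign tumour confirmed by histopathology.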
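Throughout, for Hepatotoxicity (choleostasis): human cholestatic liver injury, shown by histopathology or by peak ALT or AST elevation over alkaline phosphatase ratio below 2, value counts indexed literature reports.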
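Throughout, for Hepatotoxicity (chronic liver disease): chronic liver injury confirmed by histopathology or persistently raised serum aminotransferase activity beyond 6 months, value given as the count of indexed literature references.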
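Throughout, for Hepatotoxicity (cirrhosis): value is a count of indexed literature references reporting cirrhosis confirmed by histopathology.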
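Throughout, for Hepatotoxicity (cytolytic): human cytolytic liver injury, shown by histopathology or by a ratio above 5 of peak ALT or AST elevation to alkaline phosphatase elevation, value counts indexed references.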
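Throughout, for Hepatotoxicity (granulomatous hepatitis): value is a count of indexed literature references reporting granulomatous liver disease confirmed by histopathology.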
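Throughout, for Hepatotoxicity (malignant tumour): malignant tumour confirmed by histopathology, value gives the count of indexed literature references reporting it.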
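Throughout, for Hepatotoxicity (severe hepatitis): human clinical data: severe hepatitis, meaning potentially life-threatening liver failure or clinically observed cases, the value counts how many indexed literature references report it.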
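Throughout, for Hepatotoxicity (steatosis): steatosis confirmed by histopathology, value is the count of indexed references.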

SMILES	Hepatotoxicity (moderate) [1] [%]	Hepatotoxicity (acute) [2] [%]	Hepatotoxicity (time to onset) [3]	Hepatotoxicity (moderate) [4]	Hepatotoxicity (acute) [5]	Hepatotoxicity (cytolytic) [6]	Hepatotoxicity (choleostasis) [7]	Hepatotoxicity (severe hepatitis) [8]	Hepatotoxicity (chronic liver disease) [9]	Hepatotoxicity (cirrhosis) [10]	Hepatotoxicity (granulomatous hepatitis) [11]	Hepatotoxicity (association with vascular disease) [12]	Hepatotoxicity (steatosis) [13]	Hepatotoxicity (malignant tumour) [14]	Hepatotoxicity (benign tumour) [15]	Hepatotoxicity (animal toxicity known) [16]	other results
N=C(N)c1ccc(/C=C/c2ccc(C(=N)N)cc2)cc1 [STILBAMIDINE]	0	0	1 month - 3 months	0	1	1	0	0	0	0	0	0	0	0	0	yes	–
CCN1CC(CCN2CCOCC2)C(c2ccccc2)(c2ccccc2)C1=O (centres undefined) [DOXAPRAM]	0	0	1 day - 5 days	1	1	1	0	0	0	0	0	0	1	0	0	yes	–
O=NN(CCCl)C(=O)NC1CCCCC1 [LOMUSTINE]	39	0	2 days - 4 months	4	2	1	2	1	0	0	0	0	0	0	0	yes	–
OC(c1cc(C(F)(F)F)nc2c(C(F)(F)F)cccc12)C1CCCCN1 (centres undefined) [MEFLOQUINE]	22.5	0	2 weeks - 3 weeks	5	2	1	0	0	0	0	0	0	1	0	0	yes	–
N[C@@H](Cc1cc(I)c(Oc2cc(I)c(O)c(I)c2)c(I)c1)C(=O)O [LEVOTHYROXINE]	0	0	12 days - 4 years	1	1	0	0	0	0	1	0	0	0	0	0	yes	–
COc1cc(NS(C)(=O)=O)ccc1Nc1c2ccccc2nc2ccccc12 [AMSACRINE]	41	0	5 days - 1 month	10	2	2	0	4	0	0	0	0	1	0	0	yes	–
C[C@H](CCC(=O)O)[C@H]1CC[C@H]2[C@@H]3[C@@H](O)C[C@@H]4C[C@H](O)CC[C@]4(C)[C@H]3CC[C@]12C [URSODIOL]	4.2	0	3 weeks - 14 weeks	8	1	0	0	0	0	0	0	0	0	0	0	yes	–
Nc1ncn([C@@H]2O[C@H](CO)[C@@H](O)[C@H]2O)c(=O)n1 [AZACITIDINE]	–	–	1 week	5	1	–	–	–	0	0	–	0	0	0	0	yes	Hepatotoxicity (moderate) ([1]; Liver): 62.5%; Hepatotoxicity (acute) ([2]; Liver): 0%; Hepatotoxicity (cytolytic) ([6]; Liver): 1; Hepatotoxicity (choleostasis) ([7]; Liver): 0; Hepatotoxicity (severe hepatitis) ([8]; Liver): 2; Hepatotoxicity (granulomatous hepatitis) ([11]; Liver): 0
O=C(O)/C=C/C(=O)O [FUMARIC ACID]	59	0	2 months	6	0	0	0	0	0	0	0	0	0	0	0	yes	–
CCN(CC)CCNc1ccc(CO)c2sc3ccccc3c(=O)c12 [HYCANTHONE]	0	0	1 day - 18 days	1	7	3	1	16	1	0	0	0	1	0	0	yes	–
NNCCc1ccccc1 [PHENELZINE]	–	–	3 weeks - 5 months	1	6	–	–	–	0	1	–	0	0	1	0	yes	Hepatotoxicity (moderate) ([1]; Liver): 0%; Hepatotoxicity (acute) ([2]; Liver): 0%; Hepatotoxicity (cytolytic) ([6]; Liver): 6; Hepatotoxicity (choleostasis) ([7]; Liver): 0; Hepatotoxicity (severe hepatitis) ([8]; Liver): 7; Hepatotoxicity (granulomatous hepatitis) ([11]; Liver): 0
CC(C)[C@](O)(C(=O)OCC1=CC[N+]2([O-])CC[C@@H](O)[C@@H]12)[C@H](C)O (some centres undefined) [INDICINE N-OXIDE]	62.5	22.7	1 cure - 2 cures	8	6	4	0	4	0	0	0	1	0	0	0	yes	–
COC(=O)[C@H]1[C@H]2C[C@@H]3c4[nH]c5cc(OC)ccc5c4CCN3C[C@H]2C[C@@H](OC(=O)c2cc(OC)c(OC)c(OC)c2)[C@@H]1OC [RESERPINE]	0	0	1 year	0	3	0	1	0	0	0	0	0	0	0	0	yes	–
COc1ccc(NS(=O)(=O)c2ccc(N)cc2)nn1 [SULFAMETHOXYPYRIDAZINE]	0	0	1 month - 2 months	0	4	4	2	0	0	0	0	0	0	0	0	yes	–

— ChEMBL document CHEMBL3137667, “[Drug-induced liver injury; fourteenth updated edition of the bibliographic database of liver injuries and related drugs]” (Gastroenterol Clin Biol, 2004)
